# Experiments:
# [1] = Conversion of prodrug to parent in liver homogenate; format: in vitro ADME; conditions: prodrug 1 μM, liver S9 1 mg protein/mL, 37° C., pH 7.4, 2 h
# Protocol: Conversion of Prodrug to Parent in Liver Homogenate:
# (§1) The likely stability of prodrugs in the liver can be estimated by incubating a prodrug with liver homogenate. Incubations of prodrugs (1 μM) with liver S9 (1 mg protein/mL) were carried out at 37° C. in a phosphate buffer, pH 7.4. Control incubations contained BSA (1.1 mg/mL) instead of liver S9 microsomes. Aliquots were removed at 0, 5, 15, 30, 60 and 120 min, treated with 4 volumes of acetonitrile containing 2% formic acid and an internal standard, and centrifuged. The supernatants were analyzed by LC-MS/MS for prodrug disappearance and appearance of active drug. The half-life of the prodrug was calculated from the % prodrug remaining at different time points calculated from on the peak area ratio relative to t=0. The amount of active drug generated at the different time points was determined using a standard curve.
# [2] = molecular target: T1, recombinant human GST-Syk (Homo sapiens, UniProt P43405); experiment: Homogeneous Time-Resolved Fluorescence (HTRF) assay for the recombinant human Syk enzyme; format: biochemical; conditions: recombinant human GST-Syk 5 pM, ATP 25 μM, read-out: IC50
# T1 construct: purchased Carna Biosciences 08-176
# Procedure, shortened: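 HTRF read-out, taken 30 min after adding 2 nM europium anti-pTyr antibody plus 70 nM streptavidin-APC in 40 mM EDTA/Tris pH 7.5, detects peptide phosphorylated by GST-tagged human Syk during a 45-min room-temperature reaction.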
# [3] = Conversion of prodrug to parent in intestine homogenate; format: in vitro ADME; conditions: prodrug 1 μM, intestine S9 1 mg protein/mL, 37° C., pH 7.4, 2 h
# Protocol: Conversion of Prodrug to Parent in Intestine Homogenate:
# as §1, with “intestine” for “liver”
# [4] = Solubility in biorelevant fasted state simulated intestinal fluid (FaSSIF); format: physicochemical; conditions: 25 °C, fassif, kinetic from dmso stock, Solubility
# Procedure, shortened: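 Compound from 10 mM DMSO stock diluted into FaSSIF (maximum solubility approximately 200 μM), equilibrated, then filtered by centrifugation through a 0.45 μm polypropylene membrane. Filtrate and a 100 μM standard analysed by HPLC/DAD; solubility = (sample peak area/standard peak area) × standard concentration.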
# [5] = Conversion of prodrug to parent in in vitro biorelevant gastrointestinal tract media; format: in vitro ADME; conditions: 37° C.; for Conversion in SGF, time: simulated gastric fluid
# Protocol: Conversion of Prodrug to Parent in In Vitro Biorelevant Gastrointestinal Tract Media: The likely stability of prodrugs in the gastrointestinal tract can be estimated by incubating a prodrug in simulated gastric and intestinal fluids; compounds were measured for stability in simulated gastric fluid (SGF), fasted state simulated intestinal fluid (FaSSIF), and fasted state simulated intestinal fluid plus pancreatin (FaSSIF+pancreatin). Prodrug stock solutions were made by diluting 2 mg of compound in 200 μL DMSO. A 10 mg/mL Pancreatin in FaSSIF stock solution was made by dissolving 10 mg Pancreatin in 1 mL FaSSIF. Samples were prepared by diluting 10 μL of compound stock solution into 990 μL of biorelevant media (990 μL SGF, 990 μL FaSSIF, or 940 μL FaSSIF plus 50 μL Pancreatin stock) in a 2 mL HPLC vial and vortexing the mixture for a few seconds. The samples were incubated at 37° C. and aliquots were removed for up to 24 hours and injected directly on an HPLC to determine the conversion of prodrug to active drug. In the case of compound precipitation upon sample preparation, an individual sample was prepared for each desired time point and the entire sample was diluted with a known volume of acetonitrile/water (50/50) to ensure compound dissolution before HPLC analysis.
Compound,IC50 [2],solubility [4],"Conversion in FaSSIF + Pancreatin, time ([5]; 3 h)","Conversion in FaSSIF, time ([5]; 5 h)","Conversion in SGF, time ([5]; 5 h)",other results
"COCCN(C)C(=O)OC(C)OC(=O)[C@H]1CC[C@H]([C@@](C)(O)c2ccc(-c3cc(C)cc(Nc4cc(C(F)F)ccn4)n3)cn2)CC1 (mixture of isomers) [Example 4-1, 1-{[(2-methoxyethyl)(methyl)carbamoyl]oxy}ethyl trans-4-[(1R)-1-(6-{[4-(difluoromethyl)pyridin-2-yl]amino}-4-methyl-2,3′-bipyridin-6′-yl)-1-hydroxyethyl]cyclohexanecarboxylate]",20.7 nM,–,–,–,–,Prodrug concentration at 2 h [1]: 0 µM; Prodrug concentration at 2 h [3]: 0.539 µM
"Cc1cc(Nc2cc(C(F)F)ccn2)nc(-c2ccc([C@](C)(O)[C@H]3CC[C@H](C(=O)OCC4CCNCC4)CC3)nc2)c1 [Example 1-21, piperidin-4-ylmethyl trans-4-[(1R)-1-(6-{[4-(difluoromethyl)pyridin-2-yl]amino}-4-methyl-2,3′-bipyridin-6′-yl)-1-hydroxyethyl] cyclohexanecarboxylate]",2.3 nM,167 µM,"100%, 3 h","0%, 5 h","0%, 5 h",–
"CNCCCOC(=O)[C@H]1CC[C@H]([C@@](C)(O)c2ccc(-c3cc(C)cc(Nc4cc(C(F)F)ccn4)n3)cn2)CC1 [Example 1-22, 3-(methylamino)propyl trans-4-[(1R)-1-(6-{[4-(difluoromethyl)pyridin-2-yl]amino}-4-methyl-2,3′-bipyridin-6′-yl)-1-hydroxyethyl] cyclohexanecarboxylate]",1.8 nM,183 µM,"100%, 3 h","0%, 5 h","0%, 5 h",–
"Cc1cc(Nc2cc(C(F)F)ccn2)nc(-c2ccc([C@](C)(O)[C@H]3CC[C@H](C(=O)O[C@H]4CC[C@H](N)CC4)CC3)nc2)c1 [Example 1-23, trans-4-aminocyclohexyl trans-4-[(1R)-1-(6-{[4-(difluoromethyl)pyridin-2-yl]amino}-4-methyl-2,3′-bipyridin-6′-yl)-1-hydroxyethyl] cyclohexanecarboxylate]",1.6 nM,131 µM,"100%, 3 h","0%, 5 h","0%, 5 h",–
"Cc1cc(Nc2cc(C(F)F)ccn2)nc(-c2ccc([C@](C)(O)[C@H]3CC[C@H](C(=O)Oc4ccc(C#N)cc4)CC3)nc2)c1 [Example 1-29, 4-cyanophenyl trans-4-[(1R)-1-(6-{[4-(difluoromethyl)pyridin-2-yl]amino}-4-methyl-2,3′-bipyridin-6′-yl)-1-hydroxyethyl] cyclohexanecarboxylate]",7.3 nM,–,–,"0%, 5 h","0%, 5 h","Conversion in FaSSIF + Pancreatin, time ([5]; 24 h): 44%, 24 h"
"Cc1cc(Nc2cc(C(F)F)ccn2)nc(-c2ccc([C@](C)(O)[C@H]3CC[C@H](C(=O)OCOC(=O)OCCOCCOCCOCCO)CC3)nc2)c1 [Example 2-4, 15-hydroxy-3-oxo-2,4,7,10,13-pentaoxapentadec-1-yl trans-4-[(1R)-1-(6-{[4-(difluoromethyl)pyridin-2-yl]amino}-4-methyl-2,3′-bipyridin-6′-yl)-1-hydroxyethyl]cyclo hexanecarboxylate]",5.3 nM,–,"100%, 3 h",–,"0%, 5 h","Conversion in FaSSIF, time ([5]; 24 h): 5%, 24 h"
"CCOCCOC(=O)OCOC(=O)[C@H]1CC[C@H]([C@@](C)(O)c2ccc(-c3cc(C)cc(Nc4cc(C(F)F)ccn4)n3)cn2)CC1 [Example 2-6, {[(2-ethoxyethoxy)carbonyl]oxy}methyl trans-4-[(1R)-1-(6-{[4-(difluoromethyl)pyridin-2-yl]amino}-4-methyl-2,3′-bipyridin-6′-yl)-1-hydroxyethyl]cyclo hexanecarboxylate]",< 0.5 nM,–,"95%, 3 h","0%, 5 h","0%, 5 h",–
"Cc1cc(Nc2cc(C(F)F)ccn2)nc(-c2ccc([C@](C)(O)[C@H]3CC[C@H](C(=O)OCOC(=O)OCCCCCCN(C)C)CC3)nc2)c1 [Example 2-7, [({[6-(dimethylamino)hexyl]oxy}carbonyl)oxy]methyl trans-4-[(1R)-1-(6-{[4-(difluoromethyl)pyridin-2-yl]amino}-4-methyl-2,3′-bipyridin-6′-yl)-1-hydroxyethyl]cyclo hexanecarboxylate]",78 nM,119 µM,"20%, 3 h","0%, 5 h","0%, 5 h",–
"Cc1cc(Nc2cc(C(F)F)ccn2)nc(-c2ccc([C@](C)(O)[C@H]3CC[C@H](C(=O)OCOC(=O)OCC4CCOCC4)CC3)nc2)c1 [Example 2-9, {[(tetrahydro-2H-pyran-4-ylmethoxy)carbonyl]oxy}methyl trans-4-[(1R)-1-(6-{[4-(difluoromethyl)pyridin-2-yl]amino}-4-methyl-2,3′-bipyridin-6′-yl)-1-hydroxyethyl]cyclo hexanecarboxylate]",27.2 nM,–,"65%, 3 h","0%, 5 h",–,"Conversion in SGF, time ([5]; 3 h): 2%, 3 h"
"CCOCCOCCOC(=O)OC(OC(=O)[C@H]1CC[C@H]([C@@](C)(O)c2ccc(-c3cc(C)cc(Nc4cc(C(F)F)ccn4)n3)cn2)CC1)C(C)C (stereo partly drawn) [Example 2-17, 1-(1-methylethyl)-3-oxo-2,4,7,10-tetraoxadodec-1-yl trans-4-[(1R)-1-(6-{[4-(difluoromethyl)pyridin-2-yl]amino}-4-methyl-2,3′-bipyridin-6′-yl)-1-hydroxyethyl]cyclo hexanecarboxylate]",< 0.5 nM,–,–,–,–,Prodrug concentration at 2 h [1]: 0 µM; Prodrug concentration at 2 h [3]: 0.371 µM
Cc1cc(Nc2cc(C(F)F)ccn2)nc(-c2ccc([C@](C)(O)[C@H]3CC[C@H](C(=O)OCOC(=O)C4CCNCC4)CC3)nc2)c1 [Example 3-1],27 nM,147 µM,"100%, 3 h",–,"0%, 5 h","Conversion in FaSSIF, time ([5]; 3 h): 100%, 3 h"
"Cc1cc(Nc2cc(C(F)F)ccn2)nc(-c2ccc([C@](C)(O)[C@H]3CC[C@H](C(=O)OCOC(=O)OCCCS(C)(=O)=O)CC3)nc2)c1 [Example 7-2, ({[3-(Methylsulfonyl)propoxy]carbonyl}oxy)methyl trans-4-[(1R)-1-(6-{[4-(difluoromethyl)pyridin-2-yl]amino}-4-methyl-2,3′-bipyridin-6′-yl)-1-hydroxyethyl]cyclohexanecarboxylate]",7.5 nM,–,–,–,–,Prodrug concentration at 2 h [1]: 0.12 µM; Prodrug concentration at 2 h [3]: 0.092 µM
"Cc1cc(Nc2cc(C(F)F)ccn2)nc(-c2ccc([C@](C)(O)[C@H]3CC[C@H](C(=O)OCOP(=O)(O)O)CC3)nc2)c1 [Example 10-1, (Phosphonooxy)methyl trans-4-[(1R)-1-(6-{[4-(difluoromethyl)pyridin-2-yl]amino}-4-methyl-2,3′-bipyridin-6′-yl)-1-hydroxyethyl]cyclohexanecarboxylate]",< 0.5 nM,–,–,"20%, 5 h","5%, 5 h","Conversion in FaSSIF + Pancreatin, time ([5]; 5 h): 50%, 5 h"

# — US20150299125A1, “PRODRUG BIPYRIDYLAMINOPYRIDINES AS SYK INHIBITORS” (MERCK SHARP & DOHME CORP., priority 2012, published 2015)
